The target in one assay is T1, human alpha2A receptors (Homo sapiens, UniProt P08913).
T1 sequence (P08913 1-465): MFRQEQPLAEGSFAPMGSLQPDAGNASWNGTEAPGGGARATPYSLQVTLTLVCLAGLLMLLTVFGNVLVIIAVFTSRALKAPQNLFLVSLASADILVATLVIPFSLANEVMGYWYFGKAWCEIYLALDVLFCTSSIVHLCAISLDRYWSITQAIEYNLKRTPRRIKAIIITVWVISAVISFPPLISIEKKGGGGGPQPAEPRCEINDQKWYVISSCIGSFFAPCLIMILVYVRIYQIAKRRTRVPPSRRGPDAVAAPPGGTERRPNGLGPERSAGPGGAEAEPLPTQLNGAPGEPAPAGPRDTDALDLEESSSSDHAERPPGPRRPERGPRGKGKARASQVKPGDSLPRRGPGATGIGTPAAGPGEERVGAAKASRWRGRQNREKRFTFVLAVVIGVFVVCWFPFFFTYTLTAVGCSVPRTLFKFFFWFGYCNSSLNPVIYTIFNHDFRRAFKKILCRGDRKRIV
The assay is described as follows: cell-based.

In a further assay the target is T2, human alpha2C receptors (Homo sapiens, UniProt P18825).
T2 sequence (P18825 1-462): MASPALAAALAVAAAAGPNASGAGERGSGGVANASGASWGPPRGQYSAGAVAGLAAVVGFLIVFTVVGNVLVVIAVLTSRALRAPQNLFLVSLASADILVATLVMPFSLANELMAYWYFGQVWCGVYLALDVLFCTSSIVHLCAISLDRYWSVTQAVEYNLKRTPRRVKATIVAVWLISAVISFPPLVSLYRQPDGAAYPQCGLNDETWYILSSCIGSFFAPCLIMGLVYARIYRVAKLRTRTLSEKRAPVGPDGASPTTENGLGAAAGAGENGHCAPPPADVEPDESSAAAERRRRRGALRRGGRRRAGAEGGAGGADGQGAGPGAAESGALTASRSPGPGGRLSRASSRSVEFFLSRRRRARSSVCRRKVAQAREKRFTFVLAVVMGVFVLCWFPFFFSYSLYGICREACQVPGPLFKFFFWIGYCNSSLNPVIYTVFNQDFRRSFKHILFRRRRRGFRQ
The assay is described as follows: Determination of alpha2C antagonistic activity in vitro (FLIPR calcium assay). The settings on record: for Kb: Alpha 2C Adrenaline Kb, Kb calculated from IC50 with the Cheng-Prusoff equation, adrenaline as agonist, CHO cells, human alpha2C.

The structures appear in SMILES notation. Where a name gives a salt, the structure may show the parent alone. Where only a bound is given, the exact number is not on record here.

Description for human alpha2C receptors: Experiment 1: Determination of alpha2A and alpha2C Antagonistic Activity In Vitro
The growth medium was removed and the cells were incubated with the test compounds and the FLIPR Calcium 6 Assay reagent (Molecular Devices, CA, USA) for 2 h at 37° C. in dark. The test compounds (concentrations in cells 100 pM-10 μM) were dissolved in Probenecid-Ringer consisting of 150 mM NaCl, 3 mM KCl, 1.2 mM MgCl2, 1 mM CaCl2, 5 mM glucose, 20 mM HEPES and 2.5 mM probenecid (pH 7.4 adjusted with 1.0 M NaOH). […] All experiments were performed at 37° C. For agonism measurements the test compounds dissolved in Probenecid-Ringer were applied by FLIPR Tetra at 15 s time point. In order to determine antagonism, the cells were stimulated either with 100 nM adrenaline or noradrenaline and the test compounds were added to the cells 2 h before the experiment with the FLIPR Calcium 6 Assay reagent. […] Typically, there were four replicates at each concentration and six different dose levels. […] The minimum fluorescence value subtracted from the maximum value for each well was used in the calculations. ScreenWorks version 4.0 software was used for analyzing the results. Fitting of the antagonist dose-response results was performed with the free Hill equation and the IC50 values were fitted with IDBS XE software using model 200: y=(A+(B/(1+((x/C)̂D)))), where A is the curve maximum, B the curve minimum and C equals the EC50 value. D is slope factor (Hill). Kb was calculated with the Cheng-Prusoff equation Kb=A/((B/C)+1), where A is the IC50 of antagonist, B the concentration of agonist and C the EC50 of the agonist.

The term IC50 denotes the concentration that inhibits the measured activity by half. On human alpha2A receptors, `CC1C(=O)N([C@H]2CCCN(C[C@H]3COc4ccccc4O3)C2)C(=O)N1C` (stereo partly drawn) [example 115, 3-((S)-1-(((S)-2,3-Dihydrobenzo[b][1,4]dioxin-2-yl)methyl)-piperidin-3-yl)-1,5-dimethylimidazolidine-2,4-dione] yielded an IC50 of more than 10000 nM and a Kb of more than 449 nM. For the same compound, on human alpha2C receptors, the IC50 came out at 2.08 nM and the Kb is 0.21 nM.
With `CCC1(c2ccccc2)C(=O)N([C@H]2CCCN(C[C@H]3COc4ccccc4O3)C2)C(=O)N1C` (stereo partly drawn) [example 73, 3-((S)-1-(((S)-2,3-Dihydrobenzo[b][1,4]dioxin-2-yl)methyl)-piperidin-3-yl)-5-ethyl-1-methyl-5-phenylimidazolidine-2,4-dione], on human alpha2A receptors, the IC50 was 185 nM and the Kb came out at 8 nM. Besides, on human alpha2C receptors, the IC50 is less than 0.1 nM and the Kb is less than 0.01 nM.
The corresponding values for `O=c1[nH]c2c(F)cccc2n1[C@H]1CCCN(C[C@H]2COc3ccccc3O2)C1` [example 154, 1-((S)-1-(((S)-2,3-Dihydrobenzo[b][1,4]dioxin-2-yl)methyl)piperidin-3-yl)-4-fluoro-1H-benzo[d]imidazol-2(3H)-one] are more than 10000 nM, more than 449 nM, less than 0.1 nM and less than 0.01 nM.
The corresponding values for `C[C@@H]1NC(=O)N([C@H]2CCCN(C[C@H]3COc4ccccc4O3)C2)C1=O` [example 113, (S)-3-((S)-1-(((S)-2,3-Dihydrobenzo[b][1,4]dioxin-2-yl)methyl)-piperidin-3-yl)-5-methylimidazolidine-2,4-dione] are more than 10000 nM, more than 449 nM, 0.175 nM and 0.015 nM.
The corresponding values for `CN1CC(=O)N([C@H]2CCCN(C[C@H]3COc4ccccc4O3)C2)C1=O` [example 103, 3-((S)-1-(((S)-2,3-Dihydrobenzo[b][1,4]dioxin-2-yl)methyl)piperidin-3-yl)-1-methylimidazolidine-2,4-dione] are more than 10000 nM, more than 449 nM, 3.17 nM and 0.32 nM.
`C[C@]1(c2ccccc2)CCN([C@H]2CCCN(C[C@H]3COc4ccccc4O3)C2)C1=O` [example 14, (R)-1-((S)-1-(((S)-2,3-Dihydrobenzo[b][1,4]dioxin-2-yl)methyl)piperidin-3-yl)-3-methyl-3-phenylpyrrolidin-2-one]: on human alpha2A receptors, the half-inhibitory concentration (IC50) turned out to be 5840 nM and the Kb was 262 nM. On human alpha2C receptors, the IC50 was 0.048 nM and the Kb is 0.005 nM.
The corresponding values for `CCN1C(=O)CC(=O)N([C@H]2CCCN(C[C@H]3COc4ccccc4O3)C2)C1=O` [example 96, 1-((S)-1-(((S)-2,3-Dihydrobenzo[b][1,4]dioxin-2-yl)methyl)-piperidin-3-yl)-3-ethylpyrimidine-2,4,6(1H,3H,5H)-trione] are more than 10000 nM, more than 449 nM, 15.1 nM and 1.52 nM.
The like results for `CCCN1C(=O)C(=O)N([C@H]2CCCN(C[C@H]3COc4ccccc4O3)C2)C1=O` [example 132, 1-((S)-1-(((S)-2,3-Dihydrobenzo[b][1,4]dioxin-2-yl)methyl)-piperidin-3-yl)-3-propylimidazolidine-2,4,5-trione] were, in that order, more than 10000 nM, more than 449 nM, 0.308 nM and 0.031 nM.
As for `O=C1c2cnccc2CN1[C@H]1CCCN(C[C@H]2COc3ccccc3O2)C1` [example 11, 2-((S)-1-(((S)-2,3-Dihydrobenzo[b][1,4]dioxin-2-yl)methyl)piperidin-3-yl)-1H-pyrrolo[3,4-c]pyridin-3(2H)-one], at human alpha2A receptors, the IC50 is more than 10000 nM and the Kb is more than 449 nM. Further, on human alpha2C receptors, the half-maximal inhibitory concentration (IC50) was 127 nM and the Kb is 12.8 nM.
The like results for `N#Cc1ccc2c(c1)CN([C@H]1CCCN(C[C@H]3COc4ccccc4O3)C1)C2=O` [example 67, 2-((S)-1-(((S)-2,3-Dihydrobenzo[b][1,4]dioxin-2-yl)methyl)piperidin-3-yl)-1-oxoisoindoline-5-carbonitrile] were, in that order, more than 10000 nM, more than 449 nM, 1.3 nM and 0.132 nM.
The corresponding values for `CC(C)C1CN([C@H]2CCCN(C[C@H]3COc4ccccc4O3)C2)C(=O)O1` (stereo partly drawn) [example 19, 3-((S)-1-(((S)-2,3-Dihydrobenzo[b][1,4]dioxin-2-yl)methyl)piperidin-3-yl)-5-isopropyloxazolidin-2-one] are more than 10000 nM, more than 449 nM, 7.65 nM and 0.771 nM.
The like results for `Cc1nc2ccc(F)cc2n1[C@H]1CCCN(C[C@H]2COc3ccccc3O2)C1` [example 83, 1-((S)-1-(((S)-2,3-Dihydrobenzo[b][1,4]dioxin-2-yl)methyl)piperidin-3-yl)-6-fluoro-2-methyl-1H-benzo[d]imidazole] were, in that order, more than 10000 nM, more than 449 nM, less than 0.1 nM and less than 0.01 nM.
At human alpha2A receptors, `Cc1ccc2c(c1)CN([C@H]1CCCN(C[C@H]3COc4ccccc4O3)C1)C2=O` [example 59, 2-((S)-1-(((S)-2,3-Dihydrobenzo[b][1,4]dioxin-2-yl)methyl)piperidin-3-yl)-5-methylisoindolin-1-one formate] gave an IC50 of more than 10000 nM and a Kb of more than 449 nM. In addition, on human alpha2C receptors, the IC50 was less than 0.01 nM and the Kb was less than 0.001 nM.
The corresponding values for `Cc1nc2ncccc2n1[C@H]1CCCN(C[C@H]2COc3ccccc3O2)C1` [example 157, 1-((S)-1-(((S)-2,3-Dihydrobenzo[b][1,4]dioxin-2-yl)methyl)-piperidin-3-yl)-2-methyl-1H-imidazo[4,5-b]pyridine] are more than 10000 nM, more than 449 nM, 1.63 nM and 0.164 nM.
On human alpha2A receptors, `O=S1(=O)Cc2ccccc2N1[C@H]1CCCN(C[C@H]2COc3ccccc3O2)C1` [example 25, 1-((S)-1-(((S)-2,3-Dihydrobenzo[b][1,4]dioxin-2-yl)methyl)piperidin-3-yl)-1,3-dihydrobenzo[c]isothiazole 2,2-dioxide] gave an IC50 of 535 nM and a Kb of 24 nM. In addition, on human alpha2C receptors, the IC50 is 19.4 nM and the Kb was 1.95 nM.
The like results for `CN(C)C(=O)CN1CC(=O)N([C@H]2CCCN(C[C@H]3COc4ccccc4O3)C2)C1=O` [example 109, 2-(3-((S)-1-(((S)-2,3-Dihydrobenzo[b][1,4]dioxin-2-yl)methyl)piperidin-3-yl)-2,4-dioxoimidazolidin-1-yl)-N,N-dimethylacetamide] were, in that order, more than 10000 nM, more than 449 nM, 0.117 nM and 0.014 nM.
The like results for `O=C1C(=O)N([C@H]2CCCN(C[C@H]3COc4ccccc4O3)C2)C(=O)N1Cc1ccccn1` [example 142, 1-((S)-1-(((S)-2,3-Dihydrobenzo[b][1,4]dioxin-2-yl)methyl)piperidin-3-yl)-3-(pyridin-2-ylmethyl)imidazolidine-2,4,5-trione] were, in that order, more than 10000 nM, more than 449 nM, 0.846 nM and 0.085 nM.

Source of the values: patent US20190152992A1, “BENZODIOXANE DERIVATIVES AND THEIR PHARMACEUTICAL USE” (Orion Corporation, priority 2016, published 2019).
